pIC50: −log10 of the molar value. Counter-ions that a name gives are not always drawn. Like-named read-outs stand apart in the source and are kept apart here.
What was measured:
butyrylcholinesterase = butyrylcholinesterase (Homo sapiens, UniProt P06276); assay: biochemical
acetylcholinesterase = acetylcholinesterase (Homo sapiens, UniProt P22303); assay: biochemical
[1] = read-out: Butyrylcholinesterase IC-50
[2] = read-out: Acetylcholinesterase IC-50

Chain of butyrylcholinesterase (P06276 29-602): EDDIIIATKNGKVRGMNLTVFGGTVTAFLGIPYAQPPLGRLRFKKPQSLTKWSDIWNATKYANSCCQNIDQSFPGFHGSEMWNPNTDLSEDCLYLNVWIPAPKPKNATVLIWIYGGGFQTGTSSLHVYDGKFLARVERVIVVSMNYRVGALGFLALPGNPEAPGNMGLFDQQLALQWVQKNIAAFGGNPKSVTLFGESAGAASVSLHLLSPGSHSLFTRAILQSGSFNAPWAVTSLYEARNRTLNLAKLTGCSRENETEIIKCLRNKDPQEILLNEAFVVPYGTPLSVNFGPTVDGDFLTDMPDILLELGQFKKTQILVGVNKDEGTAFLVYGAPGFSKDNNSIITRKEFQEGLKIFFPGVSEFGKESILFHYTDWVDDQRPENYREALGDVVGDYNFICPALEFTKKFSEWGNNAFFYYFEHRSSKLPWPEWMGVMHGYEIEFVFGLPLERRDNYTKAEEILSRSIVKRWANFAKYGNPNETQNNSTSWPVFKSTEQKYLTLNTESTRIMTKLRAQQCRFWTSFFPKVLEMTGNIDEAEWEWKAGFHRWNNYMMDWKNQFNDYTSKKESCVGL
Chain of acetylcholinesterase (P22303 32-614, species assumed): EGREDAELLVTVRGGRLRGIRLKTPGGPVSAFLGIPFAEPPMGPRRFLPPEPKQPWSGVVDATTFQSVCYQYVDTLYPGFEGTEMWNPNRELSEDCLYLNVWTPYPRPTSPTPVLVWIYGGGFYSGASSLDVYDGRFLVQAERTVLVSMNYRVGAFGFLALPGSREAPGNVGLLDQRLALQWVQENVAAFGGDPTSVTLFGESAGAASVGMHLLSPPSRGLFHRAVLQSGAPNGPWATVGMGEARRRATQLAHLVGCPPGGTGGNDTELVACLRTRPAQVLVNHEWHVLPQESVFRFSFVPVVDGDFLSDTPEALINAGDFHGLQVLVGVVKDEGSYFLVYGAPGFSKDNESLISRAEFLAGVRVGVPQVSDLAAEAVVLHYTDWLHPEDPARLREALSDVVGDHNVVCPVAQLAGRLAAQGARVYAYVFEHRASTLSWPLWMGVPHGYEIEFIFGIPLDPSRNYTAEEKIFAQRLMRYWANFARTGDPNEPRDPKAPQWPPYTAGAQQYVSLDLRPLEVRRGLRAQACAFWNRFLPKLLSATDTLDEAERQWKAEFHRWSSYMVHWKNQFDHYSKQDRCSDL

COc1cc(Br)c2c3c1OC1C[C@H](O)C=C[C@]31CCN(CCN1CCOCC1)C2 (single isomer, unassigned) [Example 58]
pIC50 (butyrylcholinesterase; [1]): 4.28
pIC50 (acetylcholinesterase; [2]): < 4.00

COc1ccc2c3c1O[C@H]1C[C@@H](O)C=C[C@@]31CCN(C(N)=S)C2 (stereo in doubt) [Example 30, (4aS,6R,8aS)-6-hydroxy-3-methoxy-5,6,9,10-tetrahydro-4aH-[1]benzofuro[3a,3,2-ef][2]benzazepine-11(12H)-carbothioamide]
pIC50 (butyrylcholinesterase; [1]): < 4.00
pIC50 (acetylcholinesterase; [2]): < 4.00

COc1cc(Br)c2c3c1O[C@H]1C[C@H](O)C=C[C@@]31CCNC2 [Example 1, (4aS,6S,8S)-1-bromo-4a,5,9,10,11,12-hexahydro-3-methoxy-6H-[1]benzofuro[3a,3,2-ef][2]benzazepin-6-ol.]
pIC50 (butyrylcholinesterase): < 4.00
pIC50 (acetylcholinesterase): < 4.00

COc1cc(Br)c2c3c1O[C@@H]1C[C@@H](O)C=C[C@]31CCNC2 [Example 3, (4aR,6R,8R)-1-bromo-4a,5,9,10,11,12-hexahydro-3-methoxy-6H-[1]benzofuro[3a,3,2-ef][2]benzazepin-6-ol.]
pIC50 (butyrylcholinesterase): < 4.00
pIC50 (acetylcholinesterase): < 4.00

COc1cc(Br)c2c3c1O[C@@H]1C[C@H](O)C=C[C@]31CCN(C(=O)CN1CCN(C)CC1)C2 [Example 7, 1-[(4aR,6S,8aR)-1-bromo-6-hydroxy-3-methoxy-5,6,9,10-tetrahydro-4aH-[1]benzofuro[3a,3,2-ef][2]benzazepine-11(12H)-yl]-2-(4-methylpiperazinyl)ethan-1-one]
pIC50 (butyrylcholinesterase; [1]): < 4.00

COc1cc(Br)c2c3c1O[C@@H]1C[C@H](O)C=C[C@]31CCN(CCCN1CCN(C)CC1)C2 [Example 8, (4aR,6R,8aR)-11-(3-(4-methylpiperazine)-1-yl-propyl)-3-methoxy-5,6,9,10,11,12-hexahydro-4aH-[1]benzofuro[3a,3,2-ef][2]benzazepin-6-oI, Trihydrochloride]
pIC50 (acetylcholinesterase; [2]): < 4.00

C=CCNC(=S)N1CC[C@@]23C=C[C@@H](O)C[C@@H]2Oc2c(OC)cc(Br)c(c23)C1 [Example 12, (4aS,6R,8aS)-1-bromo-6-hydroxy-3-methoxy-4a,5,9,10-tetrahydro-6H-[1]benzofuro[3a,3,2-ef][2]benzazepine-11(12H)-thiocarbonic acid allylamide]
pIC50 (butyrylcholinesterase; [1]): 4.96

COc1ccc2c3c1O[C@H]1C[C@H](O)C=C[C@@]31CCN(CCN1CCOCC1)C2 [Example 15, (4aS,6S,8aS)-4a,5,9,10,11,12-hexahydro-11-(2-(morpholin-4-yl)-ethyl)-3-methoxy-6H-[1]benzofuro[3a,3,2-ef][2]benzazepin-6-ol]
pIC50 (butyrylcholinesterase; [1]): < 4.00

C=C(C)CN1CC[C@@]23C=C[C@@H](O)C[C@@H]2Oc2c(OC)ccc(c23)C1 [Example 17, (4aS,6S,SaS)-4a,5,9,10,11,12-hexahydro-3-methoxy-11-(2-methyl-prop-2-enyl)-6H-[1]benzofuro[3a,3,2-ef][2]benzazepin-6-ol]
pIC50 (butyrylcholinesterase): < 4.00

COc1ccc2c3c1O[C@H]1C[C@H](O)C=C[C@@]31CCN(C(=O)c1ccccc1)C2 [Example 19, (4aS,6S,8aS)-4a,5,9,10,11,12-hexahydro-3-methoxy-11-benzoyl-6H-[1]benzafuro[3a,3,2-ef][2]benzazepin-6-ol]
pIC50 (butyrylcholinesterase; [1]): < 4.00

COc1ccc2c3c1O[C@H]1C[C@H](O)C=C[C@@]31CCN(CC=C(C)C)C2 [Example 22, (4aS,6S,8aS)-4a,5,9,10,11,12-hexahydro-3-methoxy-11-(3-Methylbut-2-en-1-yl)-6H-[1]benzofuro[3a,3,2-ef][2]benzazepin-6-ol]
pIC50 (butyrylcholinesterase; [1]): 4.70

COc1ccc2c3c1O[C@H]1C[C@@H](O)C=C[C@@]31CCN(CC(C)c1cccc(Oc3ccccc3)c1)C2 (stereo partly drawn) [Example 32, 2-((4aS,6R,8aS)-6-hydroxy-3-methoxy-5,6,9,10-tetrahydro-4aH-[1]benzofuro[3a,3,2-ef][2]benzazepine-11(12H)-yl)-1-methyl-1-(3-phenoxyphenyl)ethane hydrochloride]
pIC50 (butyrylcholinesterase): 6.44

COc1ccc2c3c1O[C@H]1C[C@@H](O)C=C[C@@]31CCN(C(=O)c1ccccc1)C2 [Example 33, (4aS,6R,8aS)-4a,5,9,10,11,12-hexahydro-3-methoxy-11-benzoyl-6H-[1]benzofuro[3a,3,2-ef][2]benzazepin-6-ol]
pIC50 (butyrylcholinesterase; [1]): < 4.00

COc1ccc2c3c1O[C@H]1C[C@@H](O)C=C[C@@]31CCN(CC(C)C(=O)c1ccc(C)cc1)C2 (stereo partly drawn) [Example 35, 3-[(4aS,6R,8aS)-6-hydroxy-3-methoxy-5,6,9,10-tetrahydro-4aH-[1]benzofuro[3a,3,2-ef][2]benzazepine-11(12H)-yl]-2-methyl-1(- 4-methylphenyl)propan-1-one, hydrochloride]
pIC50 (butyrylcholinesterase; [1]): 6.40

COc1ccc2c3c1O[C@H]1C[C@@H](O)C=C[C@@]31CCN(C(=O)CN1CCCCC1)C2 [Example 36, 1-[(4aS,6R,8aS)-6-hydroxy-3-methoxy-5,6,9,10-tetrahydro-4aH-[1]benzofuro[3a,3,2-ef][2]benzazepine-11(12H)-yl]-2-(1-piperidyl)ethan-1-one]
pIC50 (butyrylcholinesterase; [1]): < 4.00

COc1ccc2c3c1O[C@H]1C[C@@H](O)C=C[C@@]31CCN(C(=O)CCN1CCCC1)C2 [Example 38, 1-[(4aS,6R,8aS)-6-hydroxy-3-methoxy-5,6,9,10-tetrahydro-4aH-[1]benzofuro[3a,3,2-ef][2]benzazepine-11(12H)-yl]-3-(1-pyrrolidyl) propan-1-one]
pIC50 (butyrylcholinesterase; [1]): 5.62

COc1ccc2c3c1O[C@H]1C[C@@H](O)C=C[C@@]31CCN(CCc1ccccc1Nc1c(Cl)cccc1Cl)C2 [Example 40, 1-((4aS,6R,8aS)-6-hydroxy-3-methoxy-5,6,9,10-tetrahydro-4aH-[1]benzofuro[3a,3,2-ef][2]benzazepine-11(12H)-yl)-2-[2-(2,6-dichloranilino)]-phenylethane]
pIC50 (butyrylcholinesterase; [1]): 5.89

COc1ccc2c3c1O[C@H]1C[C@@H](O)C=C[C@@]31CCN(C(=O)c1ccc(Br)cc1)C2 [Example 41, (4aS,6R,8aS)-4a,5,9,10,11,12-hexahydro-3-methoxy-11-(4-bromo-benzoyl)-6H-[1]benzofuro[3a,3,2-ef][2]benzazepin-6-ol]
pIC50 (butyrylcholinesterase; [1]): 4.52

COc1ccc2c3c1O[C@H]1C[C@@H](O)C=C[C@@]31CCN(Cc1ccc(Br)cc1)C2 [Example 43, (4aS,6R,8aS)-11-(4-brombenzyl)-4a,5,9,10,11,12-hexahydro-3-methoxy-6H-[1]benzofuro[3a,3,2-ef][2]benzazepin-6-ol]
pIC50 (butyrylcholinesterase): 9.22

CCOC(=O)CN1CC[C@@]23C=C[C@H](O)C[C@@H]2Oc2c(OC)ccc(c23)C1 [Example 44, Ethyl-2-((4aS,6R,8aS)-6-hydroxy-3-methoxy-5,6,9,10-tetrahydro-4aH-[1]benzofuro[3a,3,2-ef][2]benzazepine-11(12H)-yl)acetate]
pIC50 (butyrylcholinesterase; [1]): 4.38

C=C(C)CN1CC[C@@]23C=C[C@H](O)C[C@@H]2Oc2c(OC)ccc(c23)C1 [Example 46, (4aS,6R,8aS)-4a,5,9,10,11,12-hexahydro-3-methoxy-11-(2-methyl-prop-2-enyl)-6H-[1]benzofuro[3a,3,2-ef][2]benzazepin-6-ol, hydrochloride]
pIC50 (butyrylcholinesterase): 6.47

CCOC(=O)CCN1CC[C@@]23C=C[C@H](O)C[C@@H]2Oc2c(OC)ccc(c23)C1 [Example 47, Ethyl-3-((4aS,6R,8aS)-6-hydroxy-3-methoxy-5,6,9,10-tetrahydro-4aH-[1]benzofuro[3a,3,2-ef][2]benzazepine-11(12H)-yl)propanoate, hydrochloride]
pIC50 (butyrylcholinesterase; [1]): 4.29

COc1ccc2c3c1O[C@H]1C[C@@H](O)C=C[C@@]31CCN(C(=O)CN1CCOCC1)C2 [Example 48, 1-[(4aS,6R,8aS)-6-hydroxy-3-methoxy-5,6,9,10-tetrahydro-4aH-[1]benzofuro[3a,3,2-ef][2]benzazepine-11(12H)-yl]-2-(4-morpholinyl) ethan-1-one]
pIC50 (butyrylcholinesterase; [1]): 5.42

CCN(CC)CC(=O)N1CC[C@@]23C=C[C@H](O)C[C@@H]2Oc2c(OC)ccc(c23)C1 [Example 49, 1-((4aS,6R,8aS)-6-hydroxy-3-methoxy-5,6,9,10-tetrahydro-4aH-[1]benzofuro[3a,3,2-ef][2]benzazepine-11(12H)-yl]-2-(diethylamino) ethan-1-one]
pIC50 (butyrylcholinesterase; [1]): 4.40

COc1ccc2c3c1O[C@H]1C[C@@H](O)C=C[C@@]31CCN(CCCN(C)C)C2 [Example 52, (4aS,6R,8aS)-11-((3-dimethylamino)propyl)-3-methoxy-5,6,9,10,11,12-hexahydro-4aH-[1]benzofuro[3a,3,2-ef][2]benzazepin-6-ol]
pIC50 (butyrylcholinesterase; [1]): 5.68

COc1ccc2c3c1O[C@H]1C[C@@H](O)C=C[C@@]31CCN(C(=O)NC1CCCCC1)C2 [Example 53, (4aS,6R,8aS)-N11-cydohexyl-6-hydroxy-3-methoxy-5,6,9,10-tetrahydro-4aH-[1]benzofuro[3a, 3,2-ef][2]benzazepine-11(12H)-carbonic acid isopropylamide]
pIC50 (butyrylcholinesterase; [1]): < 4.00

COc1ccc2c3c1O[C@H]1C[C@@H](O)C=C[C@@]31CCN(C(=O)CCl)C2 [Example 54, 1-[(4aS,6R,8aS)-6-hydroxy-3-methoxy-5,6,9,10-tetrahydro-4aH-[1]benzofuro[3a,3,2-ef][2]benzazepine-11(12H)-yl]-2-chloroethan-1-one]
pIC50 (butyrylcholinesterase; [1]): < 4.00

COc1ccc2c3c1O[C@@H]1C[C@H](O)C=C[C@]31CC[N+](C)=C2 [Example 55, (4aR,6S,8aR)-6-hydroxy-3-methoxy-11-methyl-4a,5,9,10-tetrnhydro-6H-benzofuro[3a,3,2-eq][2]benzazepinium bromide]
pIC50 (butyrylcholinesterase): < 4.00

COc1ccc2c3c1O[C@@H]1C[C@@H](O)C=C[C@]31CC[N+](C)=C2 [Example 56, (4aR,6R,8aR)-6-hydroxy-3-methoxy-11-methyl-4a,5,9,10-tetrahydro-6H-benzofuro[3a,3,2-ef][2]benzazepineium bromide]
pIC50 (butyrylcholinesterase): < 4.00

(4aS,6S,8aS)-1-bromo-6-hydroxy-3-methoxy-4a,5, 9,10-tetrahydro-6N-[1]benzofuro[3a,3,2-et][2]benzazepine-11(12H)-thiocarbonic acid allylamide [Example 2]
pIC50 (butyrylcholinesterase; concentration at which 50% inhibition occurs, read-out: Butyrylcholinesterase IC-50): < 4.00

From US20070105837A1, “Novel derivatives of 4a,5,9,10,11,12-hexahydrobenzofuro[3a,3,2][2]-benzazepine, method for the production thereof and use thereof in the production of medicaments” (priority 2003, published 2007)
